We go through two molecules from patent US9034901B2, “Pitavastatin calcium and process for its preparation” (Cadila Healthcare Limited, priority 2010, dated 2015).

Where a name gives a salt, the structure may show the parent alone. Read-outs that look alike come from different tables or passages of the source.

For data set [1] the following is noted: cited from earlier work; for purity / water content / total impurities: US '987 A1 Table 1; for total impurities: in % (unit assumed).
Data set [2] in a line: Stability of pitavastatin calcium crystalline form at 40° C./75% RH and 25° C./60% RH (water by KF, related substances). Type of data set: physicochemical. On the procedure:
In general, the stability of pitavastatin calcium crystalline form having water content 5% wt/wt at 40° C./75% RH and 25° C./60% RH is shown in Table-1.

The subject of data set [3] is patients with hypercholesterolaemia. The settings on record: cited from earlier work.
Setting [4] is: kept at 40° C. (air tight), after 90 days.
The mark [5] stands for this setting: kept at 40° C. (air tight), initial.
[6] abbreviates: kept in open air, after 90 days.
The mark [7] stands for this setting: 1 month, 40° C. ± 2° C., RH 75% ± 5%.
[8] abbreviates: 2 month, 40° C. ± 2° C., RH 75% ± 5%.
Where [9] appears, read: 3 month, 25° C. ± 2° C., RH 60% ± 5%.
The mark [10] stands for this setting: 3 month, 40° C. ± 2° C., RH 75% ± 5%.

With `O=C(O)C[C@H](O)C[C@H](O)/C=C/c1c(C2CC2)nc2ccccc2c1-c1ccc(F)cc1` [pitavastatin calcium, (3R,5S)-7-[2-cyclopropyl-4-(4-flourophenyl)-quinolin-3-yl]-3,5-dihydroxy-6-(E)-heptenoic acid calcium salt], in data set [1] (setting [4]), the purity was 99.64, the water content is 7.81% and the total impurities is given as 0.211. For the same molecule, in data set [1] (setting [5]), the purity was 99.38%, the water content entry is listed as “about 7.89” and the total impurities is on record as 0.179. In data set [1] (setting [6]), the purity was 96.49, the water content is 1.77% and the total impurities is 2.099. Further, in data set [1] (kept in open air, initial), the purity is given as 99.38%, the water content entry was “about 7.89” and the total impurities was 0.179. The “stability during the storage” value in data set [1] (pitavastatin calcium which has become amorphous, reported in US '987 A1) is “very poor stability”. Moreover, in data set [2] (setting [7]), the Related Substances: 5-oxo amounted to 0.11%, the Related Substances: Desflouro worked out at 0.05%, the Related Substances: Diastereomer came out at 0.11% and the Related Substances: Total Impurities worked out at 0.28%. Also, the “Water by KF” value in data set [2] (setting [7]) worked out at 2.9 % w/w. For the same molecule, in data set [2] (setting [8]), the Related Substances: 5-oxo turned out to be 0.15%, the Related Substances: Desflouro came to 0.05%, the Related Substances: Diastereomer was determined as 0.11% and the Related Substances: Total Impurities came to 0.31%. Besides, in data set [2] (setting [8]), the “Water by KF” value is 4.3 % w/w. Besides, in data set [2] (setting [9]), the Related Substances: 5-oxo came to 0.12%, the Related Substances: Desflouro came out at 0.05%, the Related Substances: Diastereomer was 0.12% and the Related Substances: Lactone was 0.07%. Further, in data set [2] (setting [9]), the Related Substances: Total Impurities was 0.36% and the “Water by KF” value is given as 3.9 % w/w. Further, in data set [2] (setting [10]), the Related Substances: 5-oxo worked out at 0.14%, the Related Substances: Desflouro amounted to 0.05%, the Related Substances: Diastereomer turned out to be 0.11% and the Related Substances: Lactone was 0.09%. Also, in data set [2] (setting [10]), the Related Substances: Total Impurities was 0.39% and the “Water by KF” value worked out at 4.2 % w/w. In data set [2] (Initial), the Related Substances: 5-oxo was 0.07%, the Related Substances: Desflouro was determined as 0.05%, the Related Substances: Diastereomer was 0.17% and the Related Substances: Total Impurities was determined as 0.32%. Also, the “Water by KF” value in data set [2] (Initial) came to 3.0 % w/w. For the same molecule, the safety and tolerability result in data set [3] (treatment of patients with hypercholesterolaemia) is “safe and well tolerated”.
Turning to `O=C(O)C[C@H](O)C[C@H](O)/C=C/c1c(C2CC2)nc2ccccc2c1-c1ccc(F)cc1` [pitavastatin], in data set [3] (on the basis of reported data, dose-dependent), the potency result was “equivalent to that of atorvastatin”.
